Laboratory results taken from ChEMBL document CHEMBL1146886, “Antibacterial activity of pyrrolopyridine-substituted oxazolidinones: synthesis and in vitro SAR of various C-5 acetamide replacements” (2006).
Values after ≈ are worked out from the molar mass of the structure shown.

Assays:
Format in all cases: functional
Staphylococcus aureus [1] = assay: Antibacterial activity against gram positive Staphylococcus aureus Smith OC 4172 in presence of 50% mouse serum
Staphylococcus aureus [2] = assay: Antibacterial activity against gram positive methicillin-susceptible Staphylococcus aureus Smith OC 4172 by broth microdilution assay
Enterococcus faecium = assay: Antibacterial activity against gram positive vancomycin-resistant Enterococcus faecium OC 3312
Enterococcus faecalis = assay: Antibacterial activity against gram positive vancomycin-susceptible Enterococcus faecalis ATCC 29212
Staphylococcus aureus [3] = assay: Antibacterial activity against gram positive methicillin-resistant Staphylococcus aureus OC 2878

SMILES	MIC (Staphylococcus aureus [1])	MIC (Staphylococcus aureus [2])	MIC (Enterococcus faecium)	MIC (Enterococcus faecalis)	MIC (Staphylococcus aureus [3])
O=C1O[C@@H](COc2cnccn2)CN1c1ccc(-n2cc3cccnc3c2)c(F)c1	> 32 µg/mL	> 32 µg/mL	64 µg/mL (≈ 158 µM)	64 µg/mL (≈ 158 µM)	8 µg/mL (≈ 19.7 µM)
CC(=O)NC[C@H]1CN(c2ccc(N3CCOCC3)c(F)c2)C(=O)O1 [LINEZOLID]	–	–	2 µg/mL (≈ 5.93 µM)	–	1 µg/mL (≈ 2.96 µM)
O=C(NC[C@H]1CN(c2ccc(N3Cc4cccnc4C3)c(F)c2)C(=O)O1)C1CC1	4 µg/mL	2 µg/mL (≈ 5.05 µM)	2 µg/mL (≈ 5.05 µM)	2 µg/mL (≈ 5.05 µM)	2 µg/mL (≈ 5.05 µM)
O=C1O[C@@H](COc2cnsn2)CN1c1ccc(-n2cc3cccnc3c2)c(F)c1	16 µg/mL	8 µg/mL (≈ 19.4 µM)	4 µg/mL (≈ 9.72 µM)	4 µg/mL (≈ 9.72 µM)	2 µg/mL (≈ 4.86 µM)
COC(=O)NC[C@H]1CN(c2ccc(-n3cc4cccnc4c3)c(F)c2)C(=O)O1	32 µg/mL	16 µg/mL (≈ 41.6 µM)	16 µg/mL (≈ 41.6 µM)	16 µg/mL (≈ 41.6 µM)	16 µg/mL (≈ 41.6 µM)
O=C1O[C@@H](COc2ccon2)CN1c1ccc(N2Cc3cccnc3C2)c(F)c1	> 64 µg/mL	> 32 µg/mL	16 µg/mL (≈ 40.4 µM)	> 32 µg/mL	8 µg/mL (≈ 20.2 µM)
CS(=O)(=O)NC[C@H]1CN(c2ccc(-n3cc4cccnc4c3)c(F)c2)C(=O)O1	> 64 µg/mL	> 64 µg/mL	> 64 µg/mL	> 64 µg/mL	> 64 µg/mL
O=C1O[C@@H](COc2ccccn2)CN1c1ccc(N2Cc3cccnc3C2)c(F)c1	> 128 µg/mL	> 128 µg/mL	> 64 µg/mL	> 64 µg/mL	32 µg/mL (≈ 78.7 µM)
CC(=O)NC[C@H]1CN(c2ccc(N3Cc4cccnc4C3)c(F)c2)C(=O)O1	1 µg/mL	0.5 µg/mL (≈ 1.35 µM)	0.5 µg/mL (≈ 1.35 µM)	0.5 µg/mL (≈ 1.35 µM)	0.25 µg/mL (≈ 0.675 µM)
O=C1O[C@@H](C/N=C/NN[N+](=O)[O-])CN1c1ccc(-n2cc3cccnc3c2)c(F)c1	128 µg/mL	64 µg/mL (≈ 155 µM)	32 µg/mL (≈ 77.4 µM)	32 µg/mL (≈ 77.4 µM)	> 128 µg/mL
N#Cc1ccc(OC[C@H]2CN(c3ccc(N4Cc5cccnc5C4)c(F)c3)C(=O)O2)nc1	> 64 µg/mL	> 64 µg/mL	> 64 µg/mL	> 16 µg/mL	> 64 µg/mL
CCOC(=O)NC[C@H]1CN(c2ccc(N3Cc4cccnc4C3)c(F)c2)C(=O)O1	64 µg/mL	8 µg/mL (≈ 20 µM)	8 µg/mL (≈ 20 µM)	8 µg/mL (≈ 20 µM)	4 µg/mL (≈ 9.99 µM)
CC(=O)NC[C@H]1CN(c2ccc(-n3cc4cccnc4c3)c(F)c2)C(=O)O1	2 µg/mL	1 µg/mL (≈ 2.71 µM)	1 µg/mL (≈ 2.71 µM)	1 µg/mL (≈ 2.71 µM)	0.5 µg/mL (≈ 1.36 µM)
COC(=O)NC[C@H]1CN(c2ccc(N3Cc4cccnc4C3)c(F)c2)C(=O)O1	16 µg/mL	4 µg/mL (≈ 10.4 µM)	2 µg/mL (≈ 5.18 µM)	4 µg/mL (≈ 10.4 µM)	2 µg/mL (≈ 5.18 µM)
CS/C(=N/C#N)NC[C@H]1CN(c2ccc(-n3cc4cccnc4c3)c(F)c2)C(=O)O1	64 µg/mL	8 µg/mL (≈ 18.8 µM)	8 µg/mL (≈ 18.8 µM)	8 µg/mL (≈ 18.8 µM)	8 µg/mL (≈ 18.8 µM)
N#Cc1ccc(OC[C@H]2CN(c3ccc(-n4cc5cccnc5c4)c(F)c3)C(=O)O2)nc1	> 128 µg/mL	> 128 µg/mL	> 64 µg/mL	> 32 µg/mL	> 64 µg/mL
Cc1cccc(OC[C@H]2CN(c3ccc(-n4cc5cccnc5c4)c(F)c3)C(=O)O2)n1	> 128 µg/mL	> 128 µg/mL	> 128 µg/mL	> 64 µg/mL	> 64 µg/mL

SMILES	MIC (Staphylococcus aureus [1])	MIC (Staphylococcus aureus [2])	MIC (Enterococcus faecium)	MIC (Enterococcus faecalis)	MIC (Staphylococcus aureus [3])
O=C(NC[C@H]1CN(c2ccc(-n3cc4cccnc4c3)c(F)c2)C(=O)O1)C1CC1	16 µg/mL	8 µg/mL (≈ 20.3 µM)	8 µg/mL (≈ 20.3 µM)	16 µg/mL (≈ 40.6 µM)	8 µg/mL (≈ 20.3 µM)
O=C1O[C@@H](Cn2ccccc2=O)CN1c1ccc(-n2cc3cccnc3c2)c(F)c1	> 128 µg/mL	> 128 µg/mL	> 128 µg/mL	> 128 µg/mL	> 128 µg/mL
CCC(=O)NC[C@H]1CN(c2ccc(N3Cc4cccnc4C3)c(F)c2)C(=O)O1	4 µg/mL	2 µg/mL (≈ 5.2 µM)	2 µg/mL (≈ 5.2 µM)	2 µg/mL (≈ 5.2 µM)	1 µg/mL (≈ 2.6 µM)
O=C(CO)NC[C@H]1CN(c2ccc(N3Cc4cccnc4C3)c(F)c2)C(=O)O1	32 µg/mL	32 µg/mL (≈ 82.8 µM)	16 µg/mL (≈ 41.4 µM)	32 µg/mL (≈ 82.8 µM)	16 µg/mL (≈ 41.4 µM)
C/C(=N\C#N)NC[C@H]1CN(c2ccc(N3Cc4cccnc4C3)c(F)c2)C(=O)O1	8 µg/mL	2 µg/mL (≈ 5.07 µM)	4 µg/mL (≈ 10.1 µM)	4 µg/mL (≈ 10.1 µM)	2 µg/mL (≈ 5.07 µM)
O=C1O[C@@H](COc2ccon2)CN1c1ccc(-n2cc3cccnc3c2)c(F)c1	64 µg/mL	8 µg/mL (≈ 20.3 µM)	8 µg/mL (≈ 20.3 µM)	16 µg/mL (≈ 40.6 µM)	4 µg/mL (≈ 10.1 µM)
O=C1O[C@@H](COc2cnccn2)CN1c1ccc(N2Cc3cccnc3C2)c(F)c1	> 32 µg/mL	> 32 µg/mL	> 32 µg/mL	> 32 µg/mL	> 32 µg/mL
CS/C(=N\C#N)NC[C@H]1CN(c2ccc(N3Cc4cccnc4C3)c(F)c2)C(=O)O1	8 µg/mL	2 µg/mL (≈ 4.69 µM)	2 µg/mL (≈ 4.69 µM)	4 µg/mL (≈ 9.38 µM)	2 µg/mL (≈ 4.69 µM)
CC(=O)OCC(=O)NC[C@H]1CN(c2ccc(N3Cc4cccnc4C3)c(F)c2)C(=O)O1	32 µg/mL	32 µg/mL (≈ 74.7 µM)	16 µg/mL (≈ 37.3 µM)	16 µg/mL (≈ 37.3 µM)	128 µg/mL (≈ 299 µM)
O=C(NC[C@H]1CN(c2ccc(N3Cc4cccnc4C3)c(F)c2)C(=O)O1)C1CCC1	32 µg/mL	8 µg/mL (≈ 19.5 µM)	8 µg/mL (≈ 19.5 µM)	8 µg/mL (≈ 19.5 µM)	4 µg/mL (≈ 9.75 µM)
CCC(=O)NC[C@H]1CN(c2ccc(-n3cc4cccnc4c3)c(F)c2)C(=O)O1	32 µg/mL	32 µg/mL (≈ 83.7 µM)	16 µg/mL (≈ 41.8 µM)	16 µg/mL (≈ 41.8 µM)	16 µg/mL (≈ 41.8 µM)
Cc1cccc(OC[C@H]2CN(c3ccc(N4Cc5cccnc5C4)c(F)c3)C(=O)O2)n1	> 128 µg/mL	> 128 µg/mL	> 64 µg/mL	> 32 µg/mL	> 128 µg/mL
O=C1O[C@@H](COc2cnsn2)CN1c1ccc(N2Cc3cccnc3C2)c(F)c1	8 µg/mL	2 µg/mL (≈ 4.84 µM)	2 µg/mL (≈ 4.84 µM)	8 µg/mL (≈ 19.4 µM)	1 µg/mL (≈ 2.42 µM)
O=C1O[C@@H](Cn2ccccc2=O)CN1c1ccc(N2Cc3cccnc3C2)c(F)c1	64 µg/mL	> 32 µg/mL	> 32 µg/mL	> 32 µg/mL	16 µg/mL (≈ 39.4 µM)
O=C1O[C@@H](C/N=C/NN[N+](=O)[O-])CN1c1ccc(N2Cc3cccnc3C2)c(F)c1	16 µg/mL	8 µg/mL (≈ 19.3 µM)	8 µg/mL (≈ 19.3 µM)	16 µg/mL (≈ 38.5 µM)	8 µg/mL (≈ 19.3 µM)
CS(=O)(=O)NC[C@H]1CN(c2ccc(N3Cc4cccnc4C3)c(F)c2)C(=O)O1	16 µg/mL	4 µg/mL (≈ 9.84 µM)	4 µg/mL (≈ 9.84 µM)	8 µg/mL (≈ 19.7 µM)	2 µg/mL (≈ 4.92 µM)
